Source: US6228868A, “Oxazoline antiproliferative agents” (Abbott Laboratories, priority 1999, dated 2001)

Columns and labels:
NCI-H460 cells = test: 48-hour cellular proliferation assay, sulforhodamine stain (human lung large cell carcinoma, MDR negative); format: cell-based; details: for IC50: NCI-H460 cells
Description: (§1) Compounds of this invention were tested in a 48-hour cellular proliferation assay that uses human colon adenocarcinoma, MDR positive (HCT-15) cells, and human lung large cell carcinoma, MDR negative (NCI-H460) cells, in the 96-well microtitre format described in Skehan P., et al. New Colorimetric Cytotoxicity Assay for Anticancer Drug Screening. 1990, J. Natl. Cancer Inst. 82:1107-1112, hereby incorporated by reference. Briefly, the wells of a microtitre plate were charged sequentially with cultured cells and compounds of the invention (1.0×10^-4 to 1.0×10^-11 M in 10% DMSO prepared by dissolving compounds of the invention in DMSO and adding 11 μL of the DMSO solution to 100 μL of culture medium for a final DMSO concentration of 10%). Two of the following controls were also present in each microtitre plate: a solvent (DMSO) control without drug that yielded a 0% inhibition level and a trichloroacetic acid-treated well that yielded a 100% inhibition level. The cells were grown in culture (37° C., 5% CO2 atmosphere) for 48 hours then fixed by the addition of trichloroacetic acid. The wells were stained with sulforhodamine, washed with 1% acetic acid, and treated with 0.01 M tris buffer (100 μL) to solubilize the adherent dye. The absorbance of the dye solution was measured with a Molecular Devices SpectraMax340 plate reader. Percent inhibition and Inhibitory Concentrations (IC50) values were obtained by calculating the proportional response of the experimental values to the absorbance values of the controls.

HCT-15 cells = test: 48-hour cellular proliferation assay, sulforhodamine stain (human colon adenocarcinoma, MDR positive); format: cell-based
Description: as §1

[1] = Homo sapiens, values given in μM
[2] = Homo sapiens, NCI-460 cells, 10^-4 M

IC50 (NCI-H460 cells; Homo sapiens, values in nM) [nM] | IC50 (HCT-15 cells; Homo sapiens, values in nM) [nM] | SMILES | inhibition at 100 µM (NCI-H460 cells; [2]) [%] | inhibition at 100 µM (HCT-15 cells; Homo sapiens, 10^-4 M) [%] | also measured
150 | 47 | COc1cc(C2CN=C(c3ccc4c(c3)c(F)cn4C)O2)cc(OC)c1OC (centres unmarked) [Example 68] | – | – | –
170 | 83 | COc1cc(C2CN=C(c3ccc4cc[nH]c4c3)O2)cc(OC)c1OC (centres unmarked) [Example 27, 2-(6-indolyl)-5-(3,4,5-trimethoxyphenyl)-Δ2,3-oxazoline] | – | – | –
68 | 33 | COc1ccc(C2=NCC(c3cc(OC)c(OC)c(OC)c3)O2)cc1N (centres unmarked) [Example 39, 2-(3-amino-4-methoxyphenyl)-5-(3,4,5-trimethoxyphenyl)-Δ2,3-oxazoline] | – | – | –
470 | 580 | COc1cc(C2CN=C(c3cccc4cc[nH]c34)O2)cc(OC)c1OC (centres unmarked) [Example 31, 2-(7-indolyl)-5-(3,4,5-trimethoxyphenyl)-Δ2,3-oxazoline] | – | – | –
60 | 39 | COc1cc(C2CN=C(c3cccc4[nH]ccc34)O2)cc(OC)c1OC (centres unmarked) [Example 29, 2-(4-indolyl)-5-(3,4,5-trimethoxyphenyl)-Δ2,3-oxazoline] | – | – | –
41 | 34 | COc1cc(C2CN=C(c3cc(C)c4c(ccn4C)c3)O2)cc(OC)c1OC (centres unmarked) [Example 73, 2-(1,7-dimethyl-5-indolyl)-5-(3,4,5-trimethoxyphenyl)-Δ2,3-oxazoline] | – | – | –
37 | 23 | COc1cc(C2CN=C(c3ccc4c(c3)c(Cl)cn4C)O2)cc(OC)c1OC (centres unmarked) [Example 62, 2-(3-chloro-1-methylindol-5-yl)-5-(3,4,5-trimethoxyphenyl)-Δ2,3-oxazoline] | – | – | –
38 | 23 | COc1cc(C2CN=C(c3ccc4[nH]cc(F)c4c3)O2)cc(OC)c1OC (centres unmarked) [Example 67, 2-(3-fluoro-5-indolyl)-5-(3,4,5-trimethoxyphenyl)-Δ2,3-oxazoline] | – | – | –
680 | 450 | COc1cc(C2CN=C(c3ccc4c(ccn4CO)c3)O2)cc(OC)c1OC (centres unmarked) [Example 69, 2-(1-hydroxymethylindol-5-yl)-5-(3,4,5-trimethoxyphenyl)-Δ2,3-oxazoline] | – | – | –
390 | 210 | COc1cc(C2CN=C(c3ccc4ccn(C)c4c3)O2)cc(OC)c1OC (centres unmarked) [Example 28, 2-(1-methylindol-6-yl)-5-(3 4.5-trimethoxyphenyl)-Δ2,3-oxazoline] | – | – | –
82 | 62 | COc1cc(C2CN=C(c3ccc(C)c(N)c3)O2)cc(OC)c1OC (centres unmarked) [Example 40, 2-(3-amino-4-methyphenyl)-5-(3,4,5-trimethoxyphenyl)-Δ2,3-oxazoline] | – | – | –

Further lines, the compound ahead of its results:

SMILES | IC50 (NCI-H460 cells; Homo sapiens, values in nM) [nM] | IC50 (HCT-15 cells; Homo sapiens, values in nM) [nM] | inhibition at 100 µM (NCI-H460 cells; [2]) [%] | inhibition at 100 µM (HCT-15 cells; Homo sapiens, 10^-4 M) [%] | also measured
COc1cc(C2CN=C(c3nccc4ccccc34)O2)cc(OC)c1OC (centres unmarked) [Example 38, 2-(1-isoquinolinyl)-5-(3,4,5-trimethoxyphenyl)-Δ2,3-oxazoline] | – | – | – | – | IC50 (NCI-H460 cells; [1]): 78000 nM; IC50 (HCT-15 cells; [1]): 63000 nM
COc1cc(C2CN=C(c3c[nH]c4ccccc34)O2)cc(OC)c1OC (centres unmarked) [Example 7, 2-(indol-3-yl)-5-(3,4,5-trimethoxyphenyl)-Δ2,3-oxazoline] | – | – | 100 | 100 | –
COc1cc(C2CN=C(c3ccc4c(c3)c(C(=O)C(F)(F)F)cn4C)O2)cc(OC)c1OC (centres unmarked) [Example 77, 2-(1-methyl-3-trifluoroacetylindol-5-yl)-5-(3,4,5-trimethoxyphenyl)-Δ2,3-oxazoline] | – | – | – | – | IC50 (NCI-H460 cells; [1]): 4200 nM; IC50 (HCT-15 cells; [1]): 3800 nM
COc1cc(C2CN=C(c3ccc4ncccc4c3)O2)cc(OC)c1OC (centres unmarked) [Example 35, 2-(6-guinolinvl)-5-(3,4,5-trimethoxyphenyl)-Δ2,3-oxazoline] | – | – | – | – | IC50 (NCI-H460 cells; [1]): 3200 nM; IC50 (HCT-15 cells; [1]): 2400 nM
COc1cc(C2=NCC(c3cc(OC)c(OC)c(OC)c3)O2)ccc1N (centres unmarked) [Example 10, 2-(4-amino-3-methoxyphenyl)-5-(3,4,5-trimethoxyphenyl)-Δ2,3-oxazoline] | – | – | 100 | 100 | –
COc1ccc(C2=NCC(c3cc(OC)c(OC)c(OC)c3)O2)cc1NC(=O)[C@@H](N)CO (some centres unmarked) [Example 44] | – | – | – | – | IC50 (NCI-H460 cells; [1]): 3800 nM; IC50 (HCT-15 cells; [1]): 6600 nM
COc1cc(C2CN=C(c3cc(C)c4c(c3)cc(C)n4C)O2)cc(OC)c1OC (centres unmarked) [Example 74, 2-(1,2,7-trimethylindol-5-yl)-5-(3,4,5-trimethoxyphenyl)-Δ2,3-oxazoline] | – | – | – | – | IC50 (NCI-H460 cells; [1]): 1200 nM; IC50 (HCT-15 cells; [1]): 1300 nM
COc1cc(C2CN=C(c3cc(F)c4c(ccn4C)c3)O2)cc(OC)c1OC (centres unmarked) [Example 64, 2-(1-methyl-7-fluoro-5-indolyl)-5-(3,4,5-trimethoxyphenyl)-Δ2,3-oxazoline] | 2.9 | 3.96 | – | – | –
COc1cc(C2=NCC(c3cc(OC)c(OC)c(OC)c3)O2)ccc1OCc1ccccc1 (centres unmarked) [Example 18, 2-(4-benzyloxy-3-methoxyphenyl)-5-(3,4,5-trimethoxyphenyl)-Δ2,3-oxazoline] | – | – | 92.2 | 96 | –
COc1cc(C2CN=C(c3ccc4c(ccn4CC(F)(F)F)c3)O2)cc(OC)c1OC (centres unmarked) [Example 78, 2-(1-(2,2,2-trifluoroethyl)indol-5-yl)-5-(3,4,5-trimethoxyphenyl)-Δ2,3-oxazoline] | – | – | – | – | IC50 (NCI-H460 cells; [1]): 3500 nM; IC50 (HCT-15 cells; [1]): 1900 nM
COc1cc(C2CN=C(c3cc(Cl)c4[nH]ccc4c3)O2)cc(OC)c1OC (centres unmarked) [Example 65, 2-(7-chloro-5-indolyl)-5-(3,4,5-trimethoxyphenyl)-Δ2,3-oxazoline] | 51 | 37 | – | – | –
COc1cc(C2CN=C(c3ccc4[nH]cc(C(C)=O)c4c3)O2)cc(OC)c1OC (centres unmarked) [Example 5, 2-(3-acetylindol-5-yl)-5-(3,4,5-trimethoxyphenyl)-Δ2,3-oxazoline] | – | – | – | – | NCI-460 (% Inhibition at 10^-4 M) (NCI-H460 cells; NCI-460 cells, 10^-4 M): 100%; HCT-15 (% Inhibition at 10^-4 M) (HCT-15 cells; 10^-4 M): 100%
COc1cc(C2CN=C(c3ccc4c(c3)CCCN4C)O2)cc(OC)c1OC (centres unmarked) [Example 14, 2-(N-methyl-tetrahydroquinol-6-yl)-5-(3,4,5-trimethoxyphenyl)-Δ2,3-oxazoline] | – | – | 100 | 100 | –
COc1ccc(C2=NCC(c3cc(OC)c(OC)c(OC)c3)O2)cc1NC(=O)C(C)NC(=O)C(C)N (centres unmarked) [Example 41] | – | – | – | – | IC50 (NCI-H460 cells; values in nM): 590 nM; IC50 (HCT-15 cells; values in nM): 520 nM
COc1cc(C2CN=C(c3ccc4[nH]cc(C(=O)C(F)(F)F)c4c3)O2)cc(OC)c1OC (centres unmarked) [Example 76, 2-(3-trifluoroacetyl-5-indolyl)-5-(3,4,5-trimethoxyphenl)-Δ2,3-oxazoline] | – | – | – | – | IC50 (HCT-15 cells; [1]): 1300 nM
COc1ccc(C2=NCC(c3cc(OC)c(OC)c(OC)c3)O2)cc1OC(C)=O (centres unmarked) [Example 20, 2-(3-acetoxy-4-methoxyphenyl)-5-(3,4,5-trimethoxyphenyl)-Δ2,3-oxazoline] | – | – | 100 | 91 | –
COc1cc(C2CN=C(c3ccc(N(C)C)cc3)O2)cc(OC)c1OC (centres unmarked) [Example 1, 2-(4-dimethylaminophenyl)-5-(3,4,5-trimethoxyphenyl)-Δ2,3-oxazoline] | – | – | 100 | 100 | –
COc1cc(C2CN=C(c3ccc4[nH]ccc4c3)O2)cc(OC)c1OC (centres unmarked) [Example 11, 2-(indol-5-yl)-5-(3,4,5-trimethoxyphenyl)-Δ2,3-oxazoline] | – | – | 100 | 100 | –
COc1cc(C2CN=C(c3ccc(N)c(C)c3)O2)cc(OC)c1OC (centres unmarked) [Example 12, 2-(4-amino-3-methylphenyl)-5-(3,4,5-trimethoxyphenyl)-Δ2,3-oxazoline] | – | – | 100 | 100 | –
COc1cc(C2CN=C(c3cc4ccn(C)c4cc3Cl)O2)cc(OC)c1OC (centres unmarked) [Example 60, 2-(6-Chloro-1-methylindol-5-yl)-5-(3,4,5-trimethoxyphenyl)-Δ2,3-oxazoline] | 410 | 280 | – | – | –
COc1cc(C2CN=C(C3CC3C)O2)cc(OC)c1OC (centres unmarked) [Example 15, 2-(2-methyl-cyclopropyl)-5-(3,4,5-trimethoxyphenyl)-Δ2,3-oxazoline] | – | – | 50 | 50 | –
COc1cc(OC)cc(C2=NCC(c3cc(OC)c(OC)c(OC)c3)O2)c1 (centres unmarked) [Example 4, 2-(3,5-dimethoxyphenyl)-5-(3,4,5-trimethoxyphenyl)-Δ2,3-oxazoline] | – | – | 100 | 100 | –
COc1cc(C2CN=C(c3cc4ccccc4[nH]3)O2)cc(OC)c1OC (centres unmarked) [Example 8, 2-(indol-2-yl)-5-(3,4,5-trimethoxyphenyl)-Δ2,3-oxazoline] | – | – | 100 | 100 | –
COc1cc(C2CN=C(c3cc(Cl)c4c(ccn4C)c3)O2)cc(OC)c1OC (centres unmarked) [Example 66, 2-(1-methyl-7-chloro-5-indolyl)-5-(3,4,5-trimethoxyphenyl)-Δ2,3-oxazoline] | 100 | 46 | – | – | –
COc1cc(C2CN=C(c3cc(C)c4[nH]ccc4c3)O2)cc(OC)c1OC (centres unmarked) [Example 72, 2-(7-methyl-5-indolyl)-5-(3,4,5-trimethoxyphenyl)-Δ2,3-oxazoline] | 36 | 11 | – | – | –
COCn1ccc2cc(C3=NCC(c4cc(OC)c(OC)c(OC)c4)O3)ccc21 (centres unmarked) [Example 9, 2-(1-methoxymethylindol-5-yl)-5-(3,4,5-trimethoxyphenyl)-Δ2,3-oxazoline] | – | – | 100 | 100 | –
COc1cc(C2CN=C(c3cccc4ccn(C)c34)O2)cc(OC)c1OC (centres unmarked) [Example 32, 2-(1-methylindol-7-yl)-5-(3,4,5-trimethoxyphenyl)-Δ2,3-oxazoline] | – | – | – | – | IC50 (HCT-15 cells; [1]): 16000 nM
